# Measurements as given in patent US8927717B1, “Thiochromeno[2,3-c]quinolin-12-one derivatives, preparation method and application thereof” (National Defense Medical Center, priority 2014, dated 2015).
# What was measured:
# HOP-62 = type: cell-based; settings: Non-small cell lung cancer; 10^−5 molar; 48 hours; SRB
# 60 cancer cell lines = experiment: NCI 60-cell screen, SRB, whole panel (mean, delta, range); type: cell-based; settings: 10^−5 molar, 48 hours, SRB; for Growth percent, Delta: delta over the cell panel; for Growth percent, Range: range over the cell panel
# CCRF-CEM = type: cell-based; settings: Leukemia; 10^−5 molar; 48 hours; SRB
# HL-60(TB) = type: cell-based; settings: Leukemia; 10^−5 molar; 48 hours; SRB
# K-562 = type: cell-based; settings: Leukemia; 10^−5 molar; 48 hours; SRB
# MOLT-4 = type: cell-based; settings: Leukemia; 10^−5 molar; 48 hours; SRB
# RPMI-8226 = type: cell-based; settings: Leukemia; 10^−5 molar; 48 hours; SRB
# SR = type: cell-based; settings: Leukemia; 10^−5 molar; 48 hours; SRB
# A549/ATCC = type: cell-based; settings: Non-small cell lung cancer; 10^−5 molar; 48 hours; SRB
# HOP-92 = type: cell-based; settings: Non-small cell lung cancer; 10^−5 molar; 48 hours; SRB
# NCI-H226 = type: cell-based; settings: Non-small cell lung cancer; 10^−5 molar; 48 hours; SRB
# NCI-H23 = type: cell-based; settings: Non-small cell lung cancer; 10^−5 molar; 48 hours; SRB
# NCI-H460 = type: cell-based; settings: Non-small cell lung cancer; 10^−5 molar; 48 hours; SRB
# NCI-H522 = type: cell-based; settings: Non-small cell lung cancer; 10^−5 molar; 48 hours; SRB
# COLO 205 = type: cell-based; settings: Colon cancer; 10^−5 molar; 48 hours; SRB
# HCC-2998 = type: cell-based; settings: Colon cancer; 10^−5 molar; 48 hours; SRB
# HCT-116 = type: cell-based; settings: Colon cancer; 10^−5 molar; 48 hours; SRB
# HCT-15 = type: cell-based; settings: Colon cancer; 10^−5 molar; 48 hours; SRB
# HT29 = type: cell-based; settings: Colon cancer; 10^−5 molar; 48 hours; SRB
# KM12 = experiment: cells; type: cell-based; settings: Colon cancer; 10^−5 molar; 48 hours; SRB
# SW-620 = type: cell-based; settings: Colon cancer; 10^−5 molar; 48 hours; SRB
# SF-268 = type: cell-based; settings: CNS cancer; 10^−5 molar; 48 hours; SRB
# SF-295 = type: cell-based; settings: CNS cancer; 10^−5 molar; 48 hours; SRB
# SF-539 = type: cell-based; settings: CNS cancer; 10^−5 molar; 48 hours; SRB
# SNB-19 = type: cell-based; settings: CNS cancer; 10^−5 molar; 48 hours; SRB
# SNB-75 = type: cell-based; settings: CNS cancer; 10^−5 molar; 48 hours; SRB
# U251 = type: cell-based; settings: CNS cancer; 10^−5 molar; 48 hours; SRB
# LOX IMVI = type: cell-based; settings: Melanoma; 10^−5 molar; 48 hours; SRB
# MALME-3M = type: cell-based; settings: Melanoma; 10^−5 molar; 48 hours; SRB
# M14 = type: cell-based; settings: Melanoma; 10^−5 molar; 48 hours; SRB
# MDA-MB-435 = type: cell-based; settings: Melanoma; 10^−5 molar; 48 hours; SRB
# SK-MEL-2 = type: cell-based; settings: Melanoma; 10^−5 molar; 48 hours; SRB
# SK-MEL-28 = type: cell-based; settings: Melanoma; 10^−5 molar; 48 hours; SRB
# SK-MEL-5 = type: cell-based; settings: Melanoma; 10^−5 molar; 48 hours; SRB
# UACC-257 = type: cell-based; settings: Melanoma; 10^−5 molar; 48 hours; SRB
# UACC-62 = type: cell-based; settings: Melanoma; 10^−5 molar; 48 hours; SRB
# IGROV1 = type: cell-based; settings: Ovarian cancer; 10^−5 molar; 48 hours; SRB
# OVCAR-4 = type: cell-based; settings: Ovarian cancer; 10^−5 molar; 48 hours; SRB
# OVCAR-5 = type: cell-based; settings: Ovarian cancer; 10^−5 molar; 48 hours; SRB
# OVCAR-8 = type: cell-based; settings: Ovarian cancer; 10^−5 molar; 48 hours; SRB
# NCI/ADR-RES = type: cell-based; settings: Ovarian cancer; 10^−5 molar; 48 hours; SRB
# SK-OV-3 = type: cell-based; settings: Ovarian cancer; 10^−5 molar; 48 hours; SRB
# 786-0 = type: cell-based; settings: Renal cancer; 10^−5 molar; 48 hours; SRB
# A498 = type: cell-based; settings: Renal cancer; 10^−5 molar; 48 hours; SRB
# ACHN = type: cell-based; settings: Renal cancer; 10^−5 molar; 48 hours; SRB
# CAKI-1 = type: cell-based; settings: Renal cancer; 10^−5 molar; 48 hours; SRB
# RXF 393 = type: cell-based; settings: Renal cancer; 10^−5 molar; 48 hours; SRB
# SN12C = type: cell-based; settings: Renal cancer; 10^−5 molar; 48 hours; SRB
# TK-10 = type: cell-based; settings: Renal cancer; 10^−5 molar; 48 hours; SRB
# UO-31 = type: cell-based; settings: Renal cancer; 10^−5 molar; 48 hours; SRB
# PC-3 = type: cell-based; settings: Prostate cancer; 10^−5 molar; 48 hours; SRB
# DU-145 = type: cell-based; settings: Prostate cancer; 10^−5 molar; 48 hours; SRB
# MCF7 = type: cell-based; settings: Breast cancer; 10^−5 molar; 48 hours; SRB
# MDA-MB-231/ATCC = type: cell-based; settings: Breast cancer; 10^−5 molar; 48 hours; SRB
# HS 578T = type: cell-based; settings: Breast cancer; 10^−5 molar; 48 hours; SRB
# BT-549 = type: cell-based; settings: Breast cancer; 10^−5 molar; 48 hours; SRB
# T-47D = type: cell-based; settings: Breast cancer; 10^−5 molar; 48 hours; SRB
# MDA-MB-486 = type: cell-based; settings: Breast cancer; 10^−5 molar; 48 hours; SRB
smiles,measurement,setting,value
"COc1nc2ccccc2c2c(=O)c3cc(Cl)ccc3sc12 [Compound 5, 10-Chloro-6-methoxy-12H-thiochromeno[2,3-c]quinolin-12-one]",Growth percent HOP-62,HOP-62,96.64%
same,"Growth percent, Delta",60 cancer cell lines,39.82%
same,"Growth percent, Range",60 cancer cell lines,61.02%
same,melting point,,227 to 228 °C
"CCC(CC)Nc1nc2ccccc2c2c(=O)c3cc(Cl)ccc3sc12 [Compound N6, 10-Chloro-6-(pentan-3-ylamino)-12H-thiochromeno[2,3-c]quinolin-12-one]",Growth percent CCRF-CEM,CCRF-CEM,93.72%
same,Growth percent HL-60(TB),HL-60(TB),141.93%
same,Growth percent K-562,K-562,95.25%
same,Growth percent MOLT-4,MOLT-4,103.08%
same,Growth percent RPMI-8226,RPMI-8226,108.60%
same,Growth percent SR,SR,104.59%
same,Growth percent A549/ATCC,A549/ATCC,91.04%
same,Growth percent HOP-62,HOP-62,95.32%
same,Growth percent HOP-92,HOP-92,83.26%
same,Growth percent NCI-H226,NCI-H226,79.22%
same,Growth percent NCI-H23,NCI-H23,94.17%
same,Growth percent NCI-H460,NCI-H460,99.42%
same,Growth percent NCI-H522,NCI-H522,99.02%
same,Growth percent COLO 205,COLO 205,107.68%
same,Growth percent HCC-2998,HCC-2998,119.79%
same,Growth percent HCT-116,HCT-116,99.01%
same,Growth percent HCT-15,HCT-15,95.35%
same,Growth percent HT29,HT29,116.70%
same,Growth percent KM12,KM12,94.04%
same,Growth percent SW-620,SW-620,104.94%
same,Growth percent SF-268,SF-268,102.86%
same,Growth percent SF-295,SF-295,104.18%
same,Growth percent SF-539,SF-539,95.09%
same,Growth percent SNB-19,SNB-19,99.01%
same,Growth percent SNB-75,SNB-75,73.24%
same,Growth percent U251,U251,97.05%
same,Growth percent LOX IMVI,LOX IMVI,89.35%
same,Growth percent MALME-3M,MALME-3M,92.36%
same,Growth percent M14,M14,107.34%
same,Growth percent MDA-MB-435,MDA-MB-435,108.13%
same,Growth percent SK-MEL-2,SK-MEL-2,104.97%
same,Growth percent SK-MEL-28,SK-MEL-28,98.40%
same,Growth percent SK-MEL-5,SK-MEL-5,90.08%
same,Growth percent UACC-257,UACC-257,99.44%
same,Growth percent UACC-62,UACC-62,83.74%
same,Growth percent IGROV1,IGROV1,80.40%
same,Growth percent OVCAR-4,OVCAR-4,98.77%
same,Growth percent OVCAR-5,OVCAR-5,99.96%
same,Growth percent OVCAR-8,OVCAR-8,95.31%
same,Growth percent NCI/ADR-RES,NCI/ADR-RES,101.32%
same,Growth percent SK-OV-3,SK-OV-3,99.71%
same,Growth percent 786-0,786-0,108.84%
same,Growth percent A498,A498,103.44%
same,Growth percent ACHN,ACHN,84.92%
same,Growth percent CAKI-1,CAKI-1,73.26%
same,Growth percent RXF 393,RXF 393,93.23%
same,Growth percent SN12C,SN12C,94.28%
same,Growth percent TK-10,TK-10,138.89%
same,Growth percent UO-31,UO-31,78.57%
same,Growth percent PC-3,PC-3,84.63%
same,Growth percent DU-145,DU-145,109.54%
same,Growth percent MCF7 (Table 2: MCF),MCF7,67.12%
same,Growth percent MDA-MB-231/ATCC,MDA-MB-231/ATCC,77.83%
same,Growth percent HS 578T,HS 578T,89.81%
same,Growth percent BT-549,BT-549,109.76%
same,Growth percent T-47D,T-47D,73.62%
same,Growth percent MDA-MB-486,MDA-MB-486,95.79%
same,"Growth percent, Delta",60 cancer cell lines,29.82%
same,"Growth percent, Mean",60 cancer cell lines; mean over the cell panel,96.94%
same,"Growth percent, Range",60 cancer cell lines,74.81%
same,melting point,,160 to 161 °C
"O=c1c2cc(Cl)ccc2sc2c(N3CCOCC3)nc3ccccc3c12 [Compound 13, 10-Chloro-6-morpholino-12H-thiochromeno[2,3-c]quinolin-12-one]","Growth percent, Delta",60 cancer cell lines,50.85%
same,"Growth percent, Range",60 cancer cell lines,79.17%
same,melting point,,217 to 218 °C
